Laboratory results taken from the NIST ThermoML archive (doi:10.1021/je400130b).
Several values for one entry are separate records, joined by “and”; a condition that tells them apart may be missing. Identical values can stand only once.

Assay: molar heat capacity at constant pressure
Details: 101.33 kPa, Crystal, Small (less than 1 g) adiabatic calorimetry

O=S(=O)([O-])[O-].[Cu+2].[Cu+2].[Cu+2].[OH-].[OH-].[OH-].[OH-] [copper(II) tetrahydroxide sulfate]
Details	molar heat capacity at constant pressure
4 K	4.402 J/K/mol
4.276 K	3.87 J/K/mol
4.321 K	4.927 J/K/mol
4.467 K	6.058 J/K/mol
4.5 K	6.267 J/K/mol
4.571 K	6.664 J/K/mol
4.751 K	7.35 J/K/mol
4.944 K	8.855 J/K/mol and 8.884 J/K/mol
5 K	9.138 J/K/mol
5.109 K	9.647 J/K/mol
5.218 K	10.19 J/K/mol
5.281 K	10.29 J/K/mol
5.461 K	10.03 J/K/mol
5.496 K	9.756 J/K/mol
5.659 K	8.612 J/K/mol
5.818 K	7.934 J/K/mol
5.864 K	7.741 J/K/mol
6 K	7.452 J/K/mol
6.058 K	7.363 J/K/mol
6.147 K	7.235 J/K/mol
6.298 K	7.044 J/K/mol
6.566 K	6.796 J/K/mol
6.592 K	6.689 J/K/mol
6.889 K	6.159 J/K/mol
7 K	6.491 J/K/mol
7.099 K	6.461 J/K/mol
7.18 K	6.397 J/K/mol
7.46 K	6.264 J/K/mol
7.635 K	6.223 J/K/mol
7.743 K	6.172 J/K/mol
8 K	6.095 J/K/mol
8.024 K	6.079 J/K/mol
8.159 K	6.056 J/K/mol
8.304 K	6.014 J/K/mol
8.585 K	5.956 J/K/mol
8.67 K	5.936 J/K/mol
8.866 K	5.89 J/K/mol
9 K	5.868 J/K/mol
9.144 K	5.841 J/K/mol
9.172 K	5.855 J/K/mol
9.421 K	5.784 J/K/mol
9.668 K	5.798 J/K/mol
9.696 K	5.748 J/K/mol
9.972 K	5.754 J/K/mol
10 K	5.75 J/K/mol
10.16 K	5.732 J/K/mol
10.63 K	5.745 J/K/mol
10.93 K	5.732 J/K/mol
11.68 K	5.739 J/K/mol
11.98 K	5.75 J/K/mol
12.74 K	5.81 J/K/mol
13.03 K	5.85 J/K/mol
13.78 K	5.989 J/K/mol
14.06 K	6.069 J/K/mol
14.8 K	6.285 J/K/mol
15 K	6.341 J/K/mol
15.07 K	6.393 J/K/mol
15.81 K	6.636 J/K/mol
16.07 K	6.722 J/K/mol
16.8 K	6.975 J/K/mol
17.07 K	7.117 J/K/mol
17.8 K	7.522 J/K/mol
18.06 K	7.677 J/K/mol
18.78 K	8.087 J/K/mol
19.04 K	8.238 J/K/mol
19.76 K	8.67 J/K/mol
20 K	8.85 J/K/mol
20.02 K	8.833 J/K/mol
21.22 K	9.779 J/K/mol
21.5 K	9.988 J/K/mol
23.18 K	11.26 J/K/mol
23.46 K	11.52 J/K/mol
25 K	12.91 J/K/mol
25.15 K	13.02 J/K/mol
27.12 K	14.99 J/K/mol
29.09 K	17.14 J/K/mol
30 K	18.13 J/K/mol
31.06 K	19.35 J/K/mol
33.03 K	21.62 J/K/mol
34.81 K	23.66 J/K/mol
35 K	24 J/K/mol
35.01 K	23.95 J/K/mol
36.98 K	26.35 J/K/mol
37.09 K	26.53 J/K/mol
38.96 K	28.94 J/K/mol
39.07 K	29.08 J/K/mol
40 K	30.19 J/K/mol
41.04 K	31.63 J/K/mol
43.02 K	34.11 J/K/mol
44.99 K	36.64 J/K/mol
45 K	36.59 J/K/mol
46.97 K	39.09 J/K/mol
48.95 K	41.56 J/K/mol
50 K	43.07 J/K/mol
50.93 K	44.19 J/K/mol
52.91 K	46.98 J/K/mol
54.89 K	49.62 J/K/mol
55 K	49.46 J/K/mol
56.88 K	51.68 J/K/mol
58.87 K	53.87 J/K/mol
60 K	55.63 J/K/mol
60.86 K	56.7 J/K/mol
62.84 K	59.19 J/K/mol
64.84 K	61.5 J/K/mol
65 K	61.62 J/K/mol
66.82 K	63.78 J/K/mol
68.81 K	66.04 J/K/mol
70 K	67.43 J/K/mol
70.81 K	68.24 J/K/mol
73.31 K	71.15 J/K/mol
75 K	73.06 J/K/mol
76.31 K	74.53 J/K/mol
79.15 K	77.5 J/K/mol
79.33 K	77.85 J/K/mol
80 K	78.53 J/K/mol
82.35 K	81.16 J/K/mol
82.87 K	81.56 J/K/mol
85 K	83.89 J/K/mol
85.92 K	84.81 J/K/mol
87.61 K	86.67 J/K/mol
88.97 K	88.01 J/K/mol
90 K	89.13 J/K/mol
91.38 K	90.45 J/K/mol
92.02 K	91.18 J/K/mol
94.44 K	93.68 J/K/mol
95 K	94.27 J/K/mol
95.08 K	94.4 J/K/mol
97.53 K	96.77 J/K/mol
98.16 K	97.48 J/K/mol
100 K	99.3 J/K/mol
100.62 K	99.85 J/K/mol
101.24 K	100.56 J/K/mol
103.71 K	102.89 J/K/mol
104.33 K	103.67 J/K/mol
106.81 K	105.92 J/K/mol
107.42 K	106.61 J/K/mol
109.92 K	109.04 J/K/mol
110 K	109.1 J/K/mol
110.53 K	109.61 J/K/mol
113.05 K	112.01 J/K/mol
113.64 K	112.58 J/K/mol
116.17 K	114.94 J/K/mol
116.76 K	115.5 J/K/mol
119.31 K	118.07 J/K/mol
119.89 K	118.47 J/K/mol
120 K	118.6 J/K/mol
122.46 K	120.84 J/K/mol
123.02 K	121.58 J/K/mol
125.61 K	123.78 J/K/mol
126.17 K	124.44 J/K/mol
128.76 K	126.79 J/K/mol
129.34 K	127.55 J/K/mol
130 K	128.1 J/K/mol
131.93 K	129.76 J/K/mol
132.5 K	130.3 J/K/mol
135.11 K	132.59 J/K/mol
135.67 K	133.23 J/K/mol
138.3 K	135.82 J/K/mol
138.84 K	136.39 J/K/mol
140 K	137.4 J/K/mol
141.49 K	138.48 J/K/mol
142.03 K	139.28 J/K/mol
